According to patent US9663519B2, “Compounds useful as inhibitors of ATR kinase” (Vertex Pharmaceuticals Incorporated, priority 2013, dated 2017):

Legend:
[1] = system: HCT116 colorectal cancer cells; assay: Cisplatin Sensitization Assay (96 h cell viability MTS); format: cell-based; conditions: Cisplatin sensitization value: concentration of compound required to reduce the IC50 of Cisplatin alone by at least 3-fold; HCT116, 96 h MTS
Protocol: Compounds can be screened for their ability to sensitize HCT116 colorectal cancer cells to Cisplatin using a 96 h cell viability (MTS) assay. […] Compounds and Cisplatin are then both added simultaneously to the cell media in 2-fold serial dilutions from a top final concentration of 10 μM as a full matrix of concentrations in a final cell volume of 200 μl, and the cells are then incubated at 37° C. in 5% CO2. After 96 h, 40 μl of MTS reagent (Promega G358a) is added to each well and the cells are incubated for 1 h at 37° C. in 5% CO2. Finally, absorbance is measured at 490 nm using a SpectraMax Plus 384 reader (Molecular Devices) and the concentration of compound required to reduce the IC50 of Cisplatin alone by at least 3-fold (to 1 decimal place) can be reported.

full-length ATR = full-length ATR (Homo sapiens (Human), UniProt Q13535); assay: ATR Inhibition Assay (radioactive-phosphate incorporation); format: biochemical; conditions: Ki(app); 5 nM full-length ATR, 10 μM ATP, 25° C.
Sequence of full-length ATR (Q13535 whole entry): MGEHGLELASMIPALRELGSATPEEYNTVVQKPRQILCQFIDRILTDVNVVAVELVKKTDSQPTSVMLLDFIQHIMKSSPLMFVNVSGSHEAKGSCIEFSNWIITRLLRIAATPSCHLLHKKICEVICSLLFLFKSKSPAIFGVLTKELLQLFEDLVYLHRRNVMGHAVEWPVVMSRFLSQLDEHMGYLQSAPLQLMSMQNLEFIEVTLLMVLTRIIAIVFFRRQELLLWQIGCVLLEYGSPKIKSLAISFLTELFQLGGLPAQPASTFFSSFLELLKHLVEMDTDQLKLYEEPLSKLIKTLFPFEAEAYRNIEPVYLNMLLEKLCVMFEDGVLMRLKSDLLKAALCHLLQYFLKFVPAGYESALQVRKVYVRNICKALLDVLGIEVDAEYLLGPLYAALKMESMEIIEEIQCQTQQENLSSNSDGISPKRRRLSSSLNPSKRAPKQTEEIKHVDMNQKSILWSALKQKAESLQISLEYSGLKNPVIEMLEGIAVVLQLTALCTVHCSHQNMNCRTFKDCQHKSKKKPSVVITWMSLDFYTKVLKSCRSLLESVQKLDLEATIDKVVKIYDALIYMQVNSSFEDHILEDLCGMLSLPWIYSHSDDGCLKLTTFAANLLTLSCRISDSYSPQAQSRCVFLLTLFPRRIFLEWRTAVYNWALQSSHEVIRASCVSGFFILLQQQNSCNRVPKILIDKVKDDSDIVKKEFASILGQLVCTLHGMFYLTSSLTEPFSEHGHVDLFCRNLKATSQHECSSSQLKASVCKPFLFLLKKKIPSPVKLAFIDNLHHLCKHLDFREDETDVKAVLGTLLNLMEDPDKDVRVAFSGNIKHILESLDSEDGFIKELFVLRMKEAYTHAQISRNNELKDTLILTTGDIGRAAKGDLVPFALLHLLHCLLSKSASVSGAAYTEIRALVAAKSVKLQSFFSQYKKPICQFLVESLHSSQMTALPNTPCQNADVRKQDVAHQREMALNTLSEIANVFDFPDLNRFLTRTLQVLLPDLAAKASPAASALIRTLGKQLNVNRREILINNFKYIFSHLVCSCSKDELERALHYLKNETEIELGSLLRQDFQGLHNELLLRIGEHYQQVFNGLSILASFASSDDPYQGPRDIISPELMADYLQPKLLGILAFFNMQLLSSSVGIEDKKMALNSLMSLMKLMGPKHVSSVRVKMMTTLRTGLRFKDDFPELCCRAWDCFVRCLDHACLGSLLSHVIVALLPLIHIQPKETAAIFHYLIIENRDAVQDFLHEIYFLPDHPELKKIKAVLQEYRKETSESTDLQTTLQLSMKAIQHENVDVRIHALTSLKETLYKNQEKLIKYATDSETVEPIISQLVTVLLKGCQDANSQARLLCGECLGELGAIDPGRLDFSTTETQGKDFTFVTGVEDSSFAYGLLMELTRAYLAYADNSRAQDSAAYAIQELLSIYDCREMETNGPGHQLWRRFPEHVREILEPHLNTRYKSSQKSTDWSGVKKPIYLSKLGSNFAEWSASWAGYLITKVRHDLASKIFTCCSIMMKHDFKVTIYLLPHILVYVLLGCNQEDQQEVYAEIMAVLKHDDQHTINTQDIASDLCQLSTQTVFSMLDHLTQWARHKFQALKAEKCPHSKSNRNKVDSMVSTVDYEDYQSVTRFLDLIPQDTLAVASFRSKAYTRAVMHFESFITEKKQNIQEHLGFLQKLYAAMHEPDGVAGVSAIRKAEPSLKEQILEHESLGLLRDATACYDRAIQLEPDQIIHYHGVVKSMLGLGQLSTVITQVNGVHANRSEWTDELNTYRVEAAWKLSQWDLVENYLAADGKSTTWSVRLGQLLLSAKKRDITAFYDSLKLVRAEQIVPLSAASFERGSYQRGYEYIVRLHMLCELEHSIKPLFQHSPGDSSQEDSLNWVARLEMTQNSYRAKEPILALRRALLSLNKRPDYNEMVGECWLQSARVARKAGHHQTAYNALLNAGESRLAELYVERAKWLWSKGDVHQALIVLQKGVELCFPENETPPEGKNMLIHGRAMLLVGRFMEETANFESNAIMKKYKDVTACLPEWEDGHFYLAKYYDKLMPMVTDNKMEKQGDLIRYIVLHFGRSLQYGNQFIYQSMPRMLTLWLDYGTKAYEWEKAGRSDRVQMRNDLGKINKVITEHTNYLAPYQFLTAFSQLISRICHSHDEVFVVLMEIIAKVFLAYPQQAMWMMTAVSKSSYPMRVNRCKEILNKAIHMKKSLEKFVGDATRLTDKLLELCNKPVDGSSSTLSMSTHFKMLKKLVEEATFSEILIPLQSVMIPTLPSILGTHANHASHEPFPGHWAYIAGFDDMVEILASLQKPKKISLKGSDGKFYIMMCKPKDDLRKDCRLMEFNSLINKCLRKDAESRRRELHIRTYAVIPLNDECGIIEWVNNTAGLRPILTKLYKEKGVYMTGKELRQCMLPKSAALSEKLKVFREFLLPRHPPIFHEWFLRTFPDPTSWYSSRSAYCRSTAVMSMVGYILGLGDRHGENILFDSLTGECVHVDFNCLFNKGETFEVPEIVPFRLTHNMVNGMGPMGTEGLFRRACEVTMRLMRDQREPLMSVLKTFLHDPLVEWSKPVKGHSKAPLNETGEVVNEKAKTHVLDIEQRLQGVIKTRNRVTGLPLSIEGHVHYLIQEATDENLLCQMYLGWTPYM
Protocol: Compounds were screened for their ability to inhibit ATR kinase using a radioactive-phosphate incorporation assay. Assays were carried out in a mixture of 50 mM Tris/HCl (pH 7.5), 10 mM MgCl2 and 1 mM DTT. Final substrate concentrations were 10 μM [γ-33P]ATP (3 mCi 33P ATP/mmol ATP, Perkin Elmer) and 800 μM target peptide (ASELPASQPQPFSAKKK (SEQ. ID NO: 1)).
Assays were carried out at 25° C. in the presence of 5 nM full-length ATR. An assay stock buffer solution was prepared containing all of the reagents listed above, with the exception of ATP and the test compound of interest. 13.5 μL of the stock solution was placed in a 96 well plate followed by addition of 2 μL of DMSO stock containing serial dilutions of the test compound (typically starting from a final concentration of 15 μM with 3-fold serial dilutions) in duplicate (final DMSO concentration 7%). The plate was pre-incubated for 10 minutes at 25° C. and the reaction initiated by addition of 15 μL [γ-33P]ATP (final concentration 10 μM).
The reaction was stopped after […] by the addition of 30 μL 0.1M phosphoric acid containing 2 mM ATP. A multiscreen phosphocellulose filter 96-well plate (Millipore, Cat no. MAPHN0B50) was pretreated with 100 μL 0.2M phosphoric acid prior to the addition of 45 μL of the stopped assay mixture. The plate was washed with 5×200 μL 0.2M phosphoric acid. After drying, 100 μL Optiphase ‘SuperMix’ liquid scintillation cocktail (Perkin Elmer) was added to the well prior to scintillation counting (1450 Microbeta Liquid Scintillation Counter, Wallac).
After removing mean background values for all of the data points, Ki(app) data were calculated from non-linear regression analysis of the initial rate data using the Prism software package (GraphPad Prism version 3.0cx for Macintosh, GraphPad Software, San Diego Calif., USA).

Row | SMILES | Ki (full-length ATR) [nM] | Synergy with Cisplatin [1]
1 | Nc1nn2cc3c(nc2c1C(=O)Nc1cncnc1C1CC1)CCN(C1COC1)C3 [Compound I-26, 2-amino-N-(4-cyclopropylpyrimidin-5-yl)-7-(oxetan-3-yl)-5,6,7,8-tetrahydropyrazolo[1,5-a]pyrido[4,3-d]pyrimidine-3-carboxamide] | 1000 to 5000 | + (Cisplatin sensitization value >0.2 μM but <5 μM)
2 | COc1ncncc1NC(=O)c1c(N)nn2cc3c(nc12)CCN(C1COC1)C3 [Compound I-27, 2-amino-N-(4-methoxypyrimidin-5-yl)-7-(oxetan-3-yl)-5,6,7,8-tetrahydropyrazolo[1,5-a]pyrido[4,3-d]pyrimidine-3-carboxamide] | 10 to 1000 | ++ (Cisplatin sensitization value >0.02 μM but <0.2 μM)
3 | COc1ccncc1NC(=O)c1c(N)nn2cc3c(nc12)CCN(C1CC1)C3 [Compound I-18, 2-amino-7-cyclopropyl-N-(4-methoxypyridin-3-yl)-5,6,7,8-tetrahydropyrazolo[1,5-a]pyrido[4,3-d]pyrimidine-3-carboxamide] | 10 to 1000 | ++ (Cisplatin sensitization value >0.02 μM but <0.2 μM)
4 | COc1ccncc1NC(=O)c1c(N)nn2cc3c(nc12)CCN(C(C)(C)C)C3 [Compound I-29, 2-amino-7-(tert-butyl)-N-(4-methoxypyridin-3-yl)-5,6,7,8-tetrahydropyrazolo[1,5-a]pyrido[4,3-d]pyrimidine-3-carboxamide] | 10 to 1000 | 
5 | Nc1nn2cc3c(nc2c1C(=O)Nc1cnccc1C1CC1)CCN(C1COC1)C3 [Compound I-21, 2-amino-N-(4-cyclopropylpyridin-3-yl)-7-(oxetan-3-yl)-5,6,7,8-tetrahydropyrazolo[1,5-a]pyrido[4,3-d]pyrimidine-3-carboxamide] | 10 to 1000 | ++ (Cisplatin sensitization value >0.02 μM but <0.2 μM)
6 | Nc1nn2cc3c(nc2c1C(=O)Nc1cncc(F)c1C1CC1)CCN(C1COC1)C3 [Compound I-22, 2-amino-N-(4-cyclopropyl-5-fluoropyridin-3-yl)-7-(oxetan-3-yl)-5,6,7,8-tetrahydropyrazolo[1,5-a]pyrido[4,3-d]pyrimidine-3-carboxamide] | 10 to 1000 | ++ (Cisplatin sensitization value >0.02 μM but <0.2 μM)
7 | COc1ncncc1NC(=O)c1c(N)nn2cc3c(nc12)CCNC3 [Compound I-9, 2-amino-N-(4-methoxypyrimidin-5-yl)-5,6,7,8-tetrahydropyrazolo[1,5-a]pyrido[4,3-d]pyrimidine-3-carboxamide] | 10 to 1000 | + (Cisplatin sensitization value >0.2 μM but <5 μM)
8 | CC(C)Oc1ncncc1NC(=O)c1c(N)nn2cc3c(nc12)CCN(C)C3 [Compound I-16, 2-amino-N-(4-isopropoxypyrimidin-5-yl)-7-methyl-5,6,7,8-tetrahydropyrazolo[1,5-a]pyrido[4,3-d]pyrimidine-3-carboxamide] | 10 to 1000 | ++ (Cisplatin sensitization value >0.02 μM but <0.2 μM)
9 | Nc1nn2cc3c(nc2c1C(=O)Nc1cnccc1OCC(F)(F)F)CCNC3 [Compound I-4, 2-amino-N-(4-(2,2,2-trifluoroethoxy)pyridin-3-yl)-5,6,7,8-tetrahydropyrazolo[1,5-a]pyrido[4,3-d]pyrimidine-3-carboxamide] | 10 to 1000 | +++ (Cisplatin sensitization value of <0.02 μM)
10 | CN1CCc2nc3c(C(=O)Nc4cncc(F)c4C4CC4)c(N)nn3cc2C1 [Compound I-12, 2-amino-N-(4-cyclopropyl-5-fluoropyridin-3-yl)-7-methyl-5,6,7,8-tetrahydropyrazolo[1,5-a]pyrido[4,3-d]pyrimidine-3-carboxamide] | 10 to 1000 | ++ (Cisplatin sensitization value >0.02 μM but <0.2 μM)
11 | CN1CCc2nc3c(C(=O)Nc4cncnc4C4CC4)c(N)nn3cc2C1 [Compound I-15, 2-amino-N-(4-cyclopropylpyrimidin-5-yl)-7-methyl-5,6,7,8-tetrahydropyrazolo[1,5-a]pyrido[4,3-d]pyrimidine-3-carboxamide] | 10 to 1000 | ++ (Cisplatin sensitization value >0.02 μM but <0.2 μM)
12 | COc1cc(Cl)ncc1NC(=O)c1c(N)nn2cc3c(nc12)CCNC3 [Compound I-6, 2-amino-N-(6-chloro-4-methoxypyridin-3-yl)-5,6,7,8-tetrahydropyrazolo[1,5-a]pyrido[4,3-d]pyrimidine-3-carboxamide] | 10 to 1000 | ++ (Cisplatin sensitization value >0.02 μM but <0.2 μM)
13 | COc1ccncc1NC(=O)c1c(N)nn2cc3c(nc12)CCN(CCF)C3 [Compound I-19, 2-amino-7-(2-fluoroethyl)-N-(4-methoxypyridin-3-yl)-5,6,7,8-tetrahydropyrazolo[1,5-a]pyrido[4,3-d]pyrimidine-3-carboxamide] | 10 to 1000 | ++ (Cisplatin sensitization value >0.02 μM but <0.2 μM)
14 | Cn1cncc1-c1ccncc1NC(=O)c1c(N)nn2cc3c(nc12)CCN(C1COC1)C3 [Compound I-32, 2-amino-N-(4-(1-methyl-1H-imidazol-5-yl)pyridin-3-yl)-7-(oxetan-3-yl)-5,6,7,8-tetrahydropyrazolo[1,5-a]pyrido[4,3-d]pyrimidine-3-carboxamide] | 10 to 1000 | 
15 | Nc1nn2cc3c(nc2c1C(=O)Nc1cnccc1-c1ccccc1)CCN(C1COC1)C3 [Compound I-23, 2-amino-7-(oxetan-3-yl)-N-(4-phenylpyridin-3-yl)-5,6,7,8-tetrahydropyrazolo[1,5-a]pyrido[4,3-d]pyrimidine-3-carboxamide] | 10 to 1000 | 

Further lines, with some results ahead:

Row | Ki (full-length ATR) [nM] | SMILES | Synergy with Cisplatin [1]
16 | 10 to 1000 | COc1ccncc1NC(=O)c1c(N)nn2cc3c(nc12)CCN(C)C3 [Compound I-13, 2-amino-N-(4-methoxypyridin-3-yl)-7-methyl-5,6,7,8-tetrahydropyrazolo[1,5-a]pyrido[4,3-d]pyrimidine-3-carboxamide] | ++ (Cisplatin sensitization value >0.02 μM but <0.2 μM)
17 | 10 to 1000 | CC(C)Oc1ccncc1NC(=O)c1c(N)nn2cc3c(nc12)CCNC3 [Compound I-3, 2-amino-N-(4-isopropoxypyridin-3-yl)-5,6,7,8-tetrahydropyrazolo[1,5-a]pyrido[4,3-d]pyrimidine-3-carboxamide] | +++ (Cisplatin sensitization value of <0.02 μM)
18 | 10 to 1000 | COCCN1CCc2nc3c(C(=O)Nc4cnccc4C4CC4)c(N)nn3cc2C1 [Compound I-28, 2-amino-N-(4-cyclopropylpyridin-3-yl)-7-(2-methoxyethyl)-5,6,7,8-tetrahydropyrazolo[1,5-a]pyrido[4,3-d]pyrimidine-3-carboxamide] | ++ (Cisplatin sensitization value >0.02 μM but <0.2 μM)
19 | 10 to 1000 | COc1cc(Cl)ncc1NC(=O)c1c(N)nn2cc3c(nc12)CCN(C1COC1)C3 [Compound I-25, 2-amino-N-(6-chloro-4-methoxypyridin-3-yl)-7-(oxetan-3-yl)-5,6,7,8-tetrahydropyrazolo[1,5-a]pyrido[4,3-d]pyrimidine-3-carboxamide] | ++ (Cisplatin sensitization value >0.02 μM but <0.2 μM)
20 | 10 to 1000 | Cc1ccncc1NC(=O)c1c(N)nn2cc3c(nc12)CCN(C1COC1)C3 [Compound I-20, 2-amino-N-(4-methylpyridin-3-yl)-7-(oxetan-3-yl)-5,6,7,8-tetrahydropyrazolo[1,5-a]pyrido[4,3-d]pyrimidine-3-carboxamide] | ++ (Cisplatin sensitization value >0.02 μM but <0.2 μM)
21 | 10 to 1000 | COc1ccncc1NC(=O)c1c(N)nn2cc3c(nc12)C(C)(C)CNC3 [Compound I-31, 2-amino-N-(4-methoxypyridin-3-yl)-5,5-dimethyl-5,6,7,8-tetrahydropyrazolo[1,5-a]pyrido[4,3-d]pyrimidine-3-carboxamide] | ++ (Cisplatin sensitization value >0.02 μM but <0.2 μM)
22 | 10 to 1000 | CN1CCc2nc3c(C(=O)Nc4cnccc4OCC(F)(F)F)c(N)nn3cc2C1 [Compound I-30, 2-amino-7-methyl-N-(4-(2,2,2-trifluoroethoxy)pyridin-3-yl)-5,6,7,8-tetrahydropyrazolo[1,5-a]pyrido[4,3-d]pyrimidine-3-carboxamide] | +++ (Cisplatin sensitization value of <0.02 μM)
